Source: patent publication US8188046B2, “Amyloid beta peptides and methods of use” (University of South Florida, priority 2006, dated 2012)

Legend:
[1] = system: patients aged 50 to 85 years with probable AD; conditions: with adjuvant QS-21 and polysorbate 80, cited from earlier work
mice = assay: T cell epitope mapping: antibody production after vaccination with DCs treated with Abeta fragments (FIG. 11); type: in vivo, mouse; conditions: two vaccinations with DCs, 1×10^6 cells/mice, treated with 20 μg/million cell; ELISA 1:800 dilutions
Description: FIG. 11. Mapping result of T cell epitope with Abeta fragment carrying Dutch mutation by ELISA.

BALB/c mice [2] = assay: Antibody titer by ELISA after adjuvant-free subcutaneous Abeta peptide vaccination; type: in vivo, mouse; conditions: boost 50 ug/mice six months post third inoculation; ELISA 10 days later; no adjuvant
Experimental: Peptides: Aβ 1-42 and related peptides were obtained from Synpep (Dublin, Calif.). Peptides for vaccination were reconstituted to 10 mg/ml in DMSO and further diluted to 2 mg/ml with phosphate buffered saline.
Mice: 10 weeks old female BALB/c mice from the Jackson laboratories were housed in Varian standard cages including amber igloos and vaccinated when 14 weeks old. A total of 28 mice were grouped into 7 vaccination groups each with four animals. Differently mutated Aβ1-42 peptides were used for each group and a 1×PBS (also containing 10% DMSO) as a control group. Initial subcutaneous vaccination began at 100 μg peptide in 100 μl VEHICLE and subsequent booster vaccinations proceeded at 100 μg peptide (100 μl) at two weeks intervals. A third inoculation was carried out with 50 μg peptide in 100 μl.
Bleeding and plasma collection procedures: 10 days after injection, mice were bled by submandibular phlebotomy into EDTA tubes, and plasma was separated by centrifugation at 1500 g for 20 minutes with StatSampler from StatSpin (MA). Plasma were isolated by centrifugation and frozen at −80° C.
Antibody titer determination: Anti-amyloid beta antibody (6E10) was purchased from Signet Laboratories (Dedham, Mass.) and used as positive control. […] Plates were read at 450 nm/630 nm, and samples with readings three times higher than controls were considered positive. […]

BALB/c mice [3] = assay: Mouse anti-Abeta IgG isotyping (Th1/Th2 response); type: in vivo; conditions: n=4; for Anti-Abeta antibody isotype: peptide vaccination without adjuvant
Description: To further confirm the inflammation issue, we detected type one and type two T cell response by using the mouse anti-Abeta IgG isotyping method. […] (see FIG. 10).

**Q.** What does the source list for “AN1792: wild type amyloid beta 1-42 peptide used as a vaccine with adjuvant QS-21 and polysorbate 80”?
**A.** Occurrence of meningoencephalitis, subset of patients ([1]; Phase II): 6%; Clinical benefits in follow up study of vaccinated patients [1]: reduced AD-like pathology and improved cognition

**Q.** Which Antibody production (mice) does the source give for “Abeta 1-25: Abeta fragment 1-25 [reference compound]” here?
**A.** The Antibody production was “no antibody production”.

**Q.** Which Antibody production (mice) does the source give for “DAEFRHDSGYEVHHQKLVFFAQDVGSNKGAIIGLM [Abeta 1-35 carrying Dutch mutation, Aβ 1-35 with Dutch mutation]” here?
**A.** The Antibody production was “antibody production”.

**Q.** Which “Long term antibody and memory response after boost” value (BALB/c mice [2]) does the source give for “PDM: Abeta 1-42 with Dutch mutation, aa16-24 KLVFFAQDV” here?
**A.** Its value is “induce long term antibody response and with a good memory response”.

**Q.** And the “Th response by antibody isotyping with adjuvant” value (BALB/c mice [3]; adjuvant MPL treated vaccine compared to no adjuvant)?
**A.** The value was “adjuvant clearly induces a Th1 response”.

**Q.** For “PFDM: Abeta 1-42 with both Flemish and Dutch mutation, aa16-24 KLVFFGQDV”, which Anti-Abeta antibody isotype (BALB/c mice [3]) is on record?
**A.** Its Anti-Abeta antibody isotype is “IgG2a response”.

**Q.** With “PFM: Abeta 1-42 with Flemish mutation, aa16-24 KLVFFGEDV” as the substance, how does the Anti-Abeta antibody isotype (BALB/c mice [3]) read?
**A.** Its Anti-Abeta antibody isotype is “IgG2a response”.
